# Measured values: US20240409482A1, “Novel Compound and Organic Light Emitting Device Comprising the Same” (LG Chem, Ltd., priority 2022, published 2024)
# Test: Solubility measurement in cyclohexanone
# Assay type: physicochemical
# Design: key to Solubility (1.3 wt %): “O” means that the compound was easily dissolved in cyclohexanone; “A” means that the compound was dissolved in cyclohexanone at 80° C.; “X” means that the compound is not soluble in cyclohexanone
# Conditions: for Solubility (1.3 wt %): in cyclohexanone at a concentration of 1.3 wt % at 25° C.; for Solubility in cyclohexanone, result in words: concentration of 1.3 wt %, room temperature
# Procedure: It was confirmed whether each of Compounds 1 to 14, Compound A and Compound B prepared in Preparation Examples could be dissolved in cyclohexanone at a concentration of 1.3 wt % at 25° C., and the results are shown in Table 1 below. At this time, “O” means that the compound was easily dissolved in cyclohexanone, “A” means that the compound was dissolved in cyclohexanone at 80° C., and “X” means that the compound is not soluble in cyclohexanone.
SMILES,Solubility (1.3 wt %),"Solubility in cyclohexanone, result in words"
c1ccc2cc(-c3c4ccccc4c(-c4ccc(-c5cccc6ccc(-c7ccc8cccc(-c9c%10ccccc%10c(-c%10ccc%11ccccc%11c%10)c%10ccccc9%10)c8c7)cc56)cc4)c4ccccc34)ccc2c1 [Compound 1],◯,–
c1ccc2cc(-c3ccc(-c4c5ccccc5c(-c5cccc6ccc(-c7ccc8cccc(-c9c%10ccccc%10c(-c%10ccc%11ccccc%11c%10)c%10ccccc9%10)c8c7)cc56)c5ccccc45)cc3)ccc2c1 [Compound 2],◯,–
c1ccc2cc(-c3c4ccccc4c(-c4cccc5ccc(-c6ccc7cccc(-c8c9ccccc9c(-c9ccc(-c%10cccc%11ccccc%10%11)cc9)c9ccccc89)c7c6)cc45)c4ccccc34)ccc2c1 [Compound 3],◯,–
c1cc(-c2cccc3ccc(-c4ccc5cccc(-c6c7ccccc7c(-c7ccc8ccccc8c7)c7ccccc67)c5c4)cc23)cc(-c2c3ccccc3c(-c3cccc4ccccc34)c3ccccc23)c1 [Compound 4],◯,–
c1cc(-c2cccc3ccc(-c4ccc5cccc(-c6c7ccccc7c(-c7ccc8ccccc8c7)c7ccccc67)c5c4)cc23)cc(-c2c3ccccc3c(-c3ccc4ccccc4c3)c3ccccc23)c1 [Compound 5],◯,–
c1cc(-c2ccc(-c3c4ccccc4c(-c4cccc5ccccc45)c4ccccc34)cc2)c2cc(-c3ccc4cccc(-c5c6ccccc6c(-c6cccc7oc8ccccc8c67)c6ccccc56)c4c3)ccc2c1 [Compound 6],◯,–
c1cc(-c2cccc3ccc(-c4ccc5cccc(-c6c7ccccc7c(-c7ccc8oc9ccccc9c8c7)c7ccccc67)c5c4)cc23)cc(-c2c3ccccc3c(-c3ccc4ccccc4c3)c3ccccc23)c1 [Compound 7],◯,–
c1cc(-c2ccc(-c3c4ccccc4c(-c4cccc5ccccc45)c4ccccc34)cc2)c2cc(-c3ccc4cccc(-c5c6ccccc6c(-c6ccc7oc8ccccc8c7c6)c6ccccc56)c4c3)ccc2c1 [Compound 8],◯,–
c1ccc2c(-c3c4ccccc4c(-c4ccc(-c5ccc6ccc(-c7ccc8ccc(-c9c%10ccccc%10c(-c%10ccc%11oc%12ccccc%12c%11c%10)c%10ccccc9%10)cc8c7)cc6c5)cc4)c4ccccc34)cccc2c1 [Compound 9],◯,–
c1ccc2cc(-c3c4ccccc4c(-c4ccc5ccc(-c6ccc7ccc(-c8c9ccccc9c(-c9ccc(-c%10cccc%11ccccc%10%11)cc9)c9ccccc89)cc7c6)cc5c4)c4ccccc34)ccc2c1 [Compound 10],◯,–
c1ccc2cc(-c3c4ccccc4c(-c4ccc(-c5cccc6cc(-c7ccc8c(-c9c%10ccccc%10c(-c%10ccc%11ccccc%11c%10)c%10ccccc9%10)cccc8c7)ccc56)cc4)c4ccccc34)ccc2c1 [Compound 11],◯,–
c1cc(-c2ccc(-c3c4ccccc4c(-c4cccc5ccccc45)c4ccccc34)cc2)c2ccc(-c3ccc4c(-c5c6ccccc6c(-c6ccc7oc8ccccc8c7c6)c6ccccc56)cccc4c3)cc2c1 [Compound 12],◯,–
c1ccc(-c2c3ccccc3c(-c3ccc(-c4ccc5cc(-c6ccc7cc(-c8c9ccccc9c(-c9ccccc9)c9ccccc89)ccc7c6)ccc5c4)cc3)c3ccccc23)cc1 [Compound A],X,could not be dissolved at room temperature
"c1ccc2c(-c3ccc(-c4c5ccccc5c(-c5ccc(-c6cccc7c(-c8cccc9ccc(-c%10ccc(-c%11c%12ccccc%12c(-c%12cccc%13ccccc%12%13)c%12ccccc%11%12)cc%10)cc89)cccc67)cc5)c5ccccc45)cc3)cccc2c1 [Compound B, reference compound]",Δ,could not be dissolved at room temperature
